Data on 3 compounds can be found in publication PMC2954314 (European Journal of Pharmaceutical Sciences, 2010).

SMILES strings stand for the structures. “Also recorded” adds a separate entry of the source. Counter-ions that a name gives are not always drawn.

Series [1] addresses δ opioid receptor (Rattus norvegicus, UniProt P33533). It is filed as binding.
In series [2] the target is κ opioid receptor (Cavia porcellus, UniProt P41144). Description: Opioid receptor competition binding, [3H]U69,593, guinea pig brain membranes.
The target in another series is μ opioid receptor (Rattus norvegicus, UniProt P33535). Nature of the series: Opioid receptor competition binding, [3H]DAMGO, rat brain membranes.
Series [3] deals with mice. Nature of the series: Tail-flick test after s.c. administration. It is filed as in vivo. Particulars: Mus musculus, sc, 0.5 h, read-out: ED50 Tail-flick test. (In general: In hot-plate and tail-flick tests a longer latency is read as antinociception.)
Series [4] relates to mice. Nature of the series: Hot-plate test after s.c. administration. It counts as in vivo. Particulars: Mus musculus, sc, 0.5 h, read-out: ED50 Hot-plate test.
The test system of series [5] is mice. Nature of the series: Rotarod test of motor coordination after s.c. administration. It is filed as in vivo, mouse. To be noted: 10 mg/kg (dose range 1.25–10 mg/kg), 30 min. (Falling from the rotarod earlier than controls is read as motor impairment.)
Series [6] deals with κ opioid receptor. To be noted: read-out: Ki κ; ref Spetea et al., 2005; cited from earlier work.
Series [7] has as its target δ opioid receptor. Particulars: read-out: Ki δ; ref Spetea et al., 2005; cited from earlier work.

As to `COc1ccc2c3c1O[C@@]1(Cc4ccccc4)C(=O)C=C[C@@]4(OC)[C@@H](C2)N(C)CC[C@]314` [Compound 3, 5β-Benzyl-14-methoxycodeinone hydrochloride], the inhibition constant Ki (usually a measure of affinity in units of concentration, obtained from inhibition or displacement) at δ opioid receptor [1] is > 10000 nM; at κ opioid receptor [2], 1890 ± 453 nM; at μ opioid receptor, 34.1 ± 6 nM.
As for `CN1CC[C@]23c4c5ccc(O)c4O[C@H]2[C@@H](O)C=C[C@H]3[C@H]1C5` [Morphine, Morphine hydrochloride], the ED50 – broadly, the dose that gives a 50% effect, or the effect in half of the subjects – with mice [3] came out at 2.29 mg/kg; in the series with mice [4] it was 2.63 mg/kg. Further, in the series with mice [5], the “Effect on motor coordination (rotarod latencies)” value is “significant effect; also recorded: dose-dependent suppressive effects on motor coordination with significance”.
With `COc1ccc2c3c1O[C@H]1C(=O)CC[C@@]4(O)[C@@H](C2)N(C)CC[C@]314` [oxycodone], the results for the Ki on κ opioid receptor [6] and at δ opioid receptor [7] were […] and […], respectively.
